Patent publication US10214527B2, “Triazolopyridine inhibitors of myeloperoxidase” (priority 2015, dated 2019)

Columns and labels:
Assay type in all cases: biochemical
[1] = target: T1, myeloperoxidase (MPO) (Homo sapiens (Human), UniProt P05164); experiment: MPO peroxidation assay (Amplex Red assay)
[2] = target: T1, myeloperoxidase (MPO); experiment: MPO chlorination assay (APF assay)
[3] = target: eosinophil peroxidase (EPX) (Homo sapiens (Human), UniProt P11678); experiment: EPX bromination assay
Method: [formula] where A=minimal Y value (activity level of inhibited sample), B=maximal Y value (activity level of uninhibited sample), C=Log IC50, D=Hill Slope, x=concentration of inhibitor. EPX Bromination Assay
EPX bromination activity was measured in 100 mM KPi (pH 7.4) by monitoring the H2O2 catalyzed formation of 3-bromo tyrosine from tyrosine and potassium bromide. A 50 μl mixture of 0.6 μM EPX (Lee Biosolutions Cat#342-60) was added to 100 nL inhibitor in 100% DMSO in a 384 well REMP plate. Enzyme and compound were preincubated for ten minutes at room temperature.
After the ten minute preincubation of enzyme and inhibitor, 25 μL of a mixture containing 400 μM tyrosine and 1200 μM potassium bromide was added to the plate containing enzyme and inhibitor, followed by the addition of 25 μl of 20 μM H2O2. The reaction was allowed to proceed for 15 minutes, at which time it was quenched with 10 μL of 20% TCA. The final concentrations of all components were 0.3 μM EPX, 100 μM tyrosine, […], 5 μM H2O2, 0.1% DMSO, 2.0% TCA.
IC50 values were determined by determining the peak areas of 3-bromo-tyrosine present at the end of the 15 minute reaction and fitting the data to:
[formula] where A=minimal Y value (activity level of inhibited sample), B=maximal Y value (activity level of uninhibited sample), C=Log IC50, D=Hill Slope, x=concentration of inhibitor.
Reversed-phase analysis was performed on a Waters Acquity Ultra Performance LC system using an Acquity UPLC BEH C18 […], 2.1×50 mm analytical column. The column was maintained at 60° C. Samples were eluted using a gradient of 0%-100% B over 2.5 minutes, followed by equilibration with 100% A for 1 minute where A consisted of 0.1% TFA and B consisted of 90% MeOH/0.1% TFA at a flow rate of 0.6 ml/min. The retention time of 3-bromo tyrosine was 1.22 min.

[4] = MPO peroxidation, potency range class, read-out: Amplex Red Assay IC50 value
[5] = MPO chlorination, potency range class, read-out: APF Assay IC50 value

T1 sequence (P05164 49-745): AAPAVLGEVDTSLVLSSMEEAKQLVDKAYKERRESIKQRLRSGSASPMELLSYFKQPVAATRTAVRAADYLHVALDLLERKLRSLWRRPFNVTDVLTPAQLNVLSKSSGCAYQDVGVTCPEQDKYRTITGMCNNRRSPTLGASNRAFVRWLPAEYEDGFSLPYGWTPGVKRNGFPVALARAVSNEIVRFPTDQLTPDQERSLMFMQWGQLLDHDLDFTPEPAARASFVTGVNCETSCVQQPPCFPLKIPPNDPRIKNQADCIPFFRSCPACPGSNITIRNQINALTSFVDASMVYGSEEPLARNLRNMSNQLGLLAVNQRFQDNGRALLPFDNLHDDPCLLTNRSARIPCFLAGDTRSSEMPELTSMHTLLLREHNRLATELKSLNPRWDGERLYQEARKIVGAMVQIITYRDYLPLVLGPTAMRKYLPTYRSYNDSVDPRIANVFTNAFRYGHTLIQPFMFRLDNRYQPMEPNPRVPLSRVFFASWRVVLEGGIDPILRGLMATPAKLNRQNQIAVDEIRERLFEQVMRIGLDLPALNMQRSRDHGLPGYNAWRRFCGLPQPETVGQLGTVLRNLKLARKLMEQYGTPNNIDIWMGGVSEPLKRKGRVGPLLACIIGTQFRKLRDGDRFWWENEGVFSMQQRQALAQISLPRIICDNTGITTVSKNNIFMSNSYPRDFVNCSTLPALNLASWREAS
Chain of eosinophil peroxidase (EPX) (P11678 140-715): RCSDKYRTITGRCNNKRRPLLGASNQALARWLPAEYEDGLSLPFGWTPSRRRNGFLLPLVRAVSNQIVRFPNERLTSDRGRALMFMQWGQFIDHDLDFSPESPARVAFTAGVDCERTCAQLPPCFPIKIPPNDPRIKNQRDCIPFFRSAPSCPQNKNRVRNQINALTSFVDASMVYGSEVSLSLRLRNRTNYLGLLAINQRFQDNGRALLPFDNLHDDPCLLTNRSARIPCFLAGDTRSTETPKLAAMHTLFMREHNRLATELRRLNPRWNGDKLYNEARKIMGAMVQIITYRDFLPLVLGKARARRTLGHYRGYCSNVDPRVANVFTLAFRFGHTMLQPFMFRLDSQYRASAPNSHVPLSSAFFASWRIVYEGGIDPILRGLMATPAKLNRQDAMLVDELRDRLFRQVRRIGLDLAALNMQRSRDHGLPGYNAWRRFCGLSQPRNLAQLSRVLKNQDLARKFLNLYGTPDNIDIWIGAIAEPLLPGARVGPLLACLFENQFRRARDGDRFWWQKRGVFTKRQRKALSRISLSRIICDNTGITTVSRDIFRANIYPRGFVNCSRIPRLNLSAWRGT

| SMILES | IC50 [1, 4] | IC50 [2, 5] | IC50 [1] | IC50 [2] | IC50 [3] |
| --- | --- | --- | --- | --- | --- |
| Nc1cc(Cc2ccc(-n3cccn3)cc2)c2nn[nH]c2n1 [Example 11, 7-(4-(1H-pyrazol-1-yl)benzyl)-3H-[1,2,3]triazolo [4,5-b]pyridin-5-amine] | 101 to 999 nM | 101 to 999 nM |  |  |  |
| CS(=O)(=O)c1cccc(Cc2cc(N)nc3[nH]nnc23)c1 [Example 13, 7-(3-(methylsulfon-yl)benzyl)-3H-[1,2,3]triazolo [4,5-b]pyridin-5-amine] |  |  | 1000 to 10000 nM | 1000 to 10000 nM |  |
| Nc1cc(Cc2cccc(-c3cccc(F)c3)c2)c2nn[nH]c2n1 [Example 14, 7-((3′-fluoro-[1,1′-biphenyl]-3-yl)methyl)-3H-[1,2,3]triazolo [4,5-b] pyridin-5-amine] | 101 to 999 nM | 1 to 100 nM |  |  |  |
| Nc1cc(Cc2cccc(Cc3ccccc3)c2)c2nn[nH]c2n1 [Example 16, 7-(3-benzylbenzyl)-3H-[1,2,3]triazolo [4,5-b]pyridin-5-amine] | 1 to 100 nM | 1 to 100 nM |  |  |  |
| Nc1cc(Cc2cc(Cl)ccc2F)c2nn[nH]c2n1 [Example 21, 7-(5-chloro-2-fluorobenzyl)-3H-[1,2,3] triazolo[4,5-b]pyridin-5-amine] | 1 to 100 nM | 1 to 100 nM |  |  |  |
| Nc1cc(Cc2ccc(F)cc2)c2nn[nH]c2n1 [Example 28, 7-(4-fluorobenzyl)-3H-[1,2,3]triazolo [4,5-b]pyridin-5-amine] | 101 to 999 nM | 101 to 999 nM |  |  |  |
| Nc1cc(Cc2cccc(OC(F)(F)F)c2)c2nn[nH]c2n1 [Example 29, 7-(3-(trifluorometh-oxy)benzyl)-3H-[1,2,3]triazolo [4,5-b]pyridin-5-amine] | 101 to 999 nM | 101 to 999 nM |  |  |  |
| Cc1cc(C)cc(Cc2cc(N)nc3[nH]nnc23)c1 [Example 31, 7-(3,5-dimethylbenzyl)-3H-[1,2,3] triazolo[4,5-b]pyridin-5-amine] | 1 to 100 nM | 101 to 999 nM |  |  | 34 nM |
| Nc1cc(Cc2ccc(F)c(F)c2)c2nn[nH]c2n1 [Example 34, 7-(3,4-difluorobenzyl)-3H-[1,2,3] triazolo[4,5-b]pyridin-5-amine] | 101 to 999 nM | 101 to 999 nM |  |  |  |
| Nc1cc(Cc2ccc(-c3ccccc3)cc2)c2nn[nH]c2n1 [Example 37, 7-([1,1′-biphenyl]-4-ylmethyl)-3H-[1,2,3]triazolo [4,5-b]pyridin-5-amine] | 101 to 999 nM | 101 to 999 nM |  |  |  |
| Nc1cc(Cc2cccc(C(=O)c3ccccc3)c2)c2nn[nH]c2n1 [Example 40, (3-((5-amino-3H-[1,2,3]triazolo [4,5-b]pyridin-7-yl)methyl)phenyl)(phenyl) methanone] | 101 to 999 nM | 101 to 999 nM |  |  |  |
| Nc1cc(Cc2ccc(F)cc2F)c2nn[nH]c2n1 [Example 43, 7-(2,4-difluorobenzyl)-3H-[1,2,3] triazolo[4,5-b]pyridin-5-amine] | 101 to 999 nM | 101 to 999 nM |  |  |  |
| Nc1cc(Cc2cccc(F)c2F)c2nn[nH]c2n1 [Example 44, 7-(2,3-difluorobenzyl)-3H-[1,2,3] triazolo[4,5-b]pyridin-5-amine] | 1 to 100 nM | 101 to 999 nM |  |  |  |
| Nc1cc(Cc2cccc(C(=O)NCCc3ccccc3)c2)c2nn[nH]c2n1 [Example 47, 3-((5-Amino-3H-[1,2,3]triazolo[4,5-b]pyridin-7-yl)methyl)-N-phenethylbenzamide] | 101 to 999 nM | 101 to 999 nM |  |  |  |
| Nc1cc(Cc2cccc(-c3ccn(Cc4ccccc4)n3)c2)c2nn[nH]c2n1 [Example 48, 7-(3-(1-Benzyl-1H-pyrazol-3-yl)benzyl)-3H-[1,2,3]triazolo[4,5-b]pyridin-5-amine] | 1 to 100 nM | 101 to 999 nM |  |  |  |
| COC(=O)c1cc(Cc2cc(N)nc3[nH]nnc23)ccc1F [Example 50, methyl 5-((5-amino-3H-[1,2,3]triazolo [4,5-b]pyridin-7-yl)methyl)-2-fluorobenzoate] | 101 to 999 nM | 101 to 999 nM |  |  |  |
| COc1cccc(Cc2cc(N)nc3[nH]nnc23)n1 [Example 51, 7-((6-Methoxypyridin-2-yl)methyl)-3H-[1,2,3]triazolo[4,5-b]pyridin-5-amine] | 101 to 999 nM | 1000 to 10000 nM |  |  |  |
| Nc1cc(Cc2cccnc2)c2nn[nH]c2n1 [Example 56, 7-(pyridin-3-ylmethyl)-3H-[1,2,3] triazolo[4,5-b]pyridin-5-amine] | 101 to 999 nM | 101 to 999 nM |  |  |  |
| Nc1cc(Cc2cncc(Cl)c2)c2nn[nH]c2n1 [Example 57, 7-((5-chloropyridin-3-yl)methyl)-3H-[1,2,3]triazolo [4,5-b]pyridin-5-amine] | 1 to 100 nM |  |  |  | 52 nM |
| Nc1cc(Cc2ccc(Oc3ccccc3)nc2)c2nn[nH]c2n1 [Example 58, 7-((6-phenoxypyridin-3-yl)methyl)-3H-[1,2,3]triazolo [4,5-b]pyridin-5-amine] | 1000 to 10000 nM | 101 to 999 nM |  |  |  |
| CCn1ccc2c(Cc3cc(N)nc4[nH]nnc34)cccc21 [Example 60, 7-((1-Ethyl-1H-indol-4-yl)methyl)-3H-[1,2,3]triazolo[4,5-b]pyridin-5-amine] | 101 to 999 nM |  |  |  |  |
| Nc1cc(Cc2cccc3c2ccn3Cc2cccc(-c3ccccc3)c2)c2nn[nH]c2n1 [Example 61, 7-((1-([1,1′-Biphenyl]-3-ylmethyl)-1H-indol-4-yl)methyl)-3H-[1,2,3]triazolo[4,5-b]pyridin-5-amine] | 1 to 100 nM |  |  |  |  |
| Nc1cc(Cc2cccc3c2ccn3Cc2cccc(Cc3ccccc3)c2)c2nn[nH]c2n1 [Example 62, 7-((1-(3-Benzylbenzyl)-1H-indol-4-yl)methyl)-3H-[1,2,3]triazolo[4,5-b]pyridin-5-amine] | 1 to 100 nM | 1 to 100 nM |  |  |  |
| Nc1cc(Cc2cccc3c2ccn3Cc2cccc(OCc3ccccc3)c2)c2nn[nH]c2n1 [Example 63, 7-((1-(3-(Benzyloxy)benzyl)-1H-indol-4-yl)methyl)-3H-[1,2,3]triazolo[4,5-b]pyridin-5-amine] | 1 to 100 nM | 1 to 100 nM |  |  |  |
| Nc1cc(Cc2cccc3c2ccn3Cc2cccc(F)c2)c2nn[nH]c2n1 [Example 64, 7-((1-(3-Fluorobenzyl)-1H-indol-4-yl)methyl)-3H-[1,2,3]triazolo[4,5-b]pyridin-5-amine] | 1 to 100 nM | 101 to 999 nM |  |  | 19 nM |
| Nc1cc(Cc2cccc3c2cnn3Cc2ccccc2)c2nn[nH]c2n1 [Example 65, 7-((1-Benzyl-1H-indazol-4-yl)methyl)-3H-[1,2,3]triazolo[4,5-b]pyridin-5-amine] | 1 to 100 nM | 1 to 100 nM |  |  |  |
| Nc1cc(Cc2cccc3nn(Cc4ccccc4)cc23)c2nn[nH]c2n1 [Example 66, 7-((2-Benzyl-2H-indazol-4-yl)methyl)-3H-[1,2,3]triazolo[4,5-b]pyridin-5-amine] | 101 to 999 nM | 101 to 999 nM |  |  |  |
| Cn1ncc2ccc(Cc3cc(N)nc4[nH]nnc34)cc21 [Example 67, 7-((1-Methyl-1H-indazol-6-yl)methyl)-3H-[1,2,3]triazolo[4,5-b]pyridin-5-amine] | 101 to 999 nM |  |  |  |  |
| Cn1ncc2cc(Cc3cc(N)nc4[nH]nnc34)ccc21 [Example 68, 7-((1-Methyl-1H-indazol-5-yl)methyl)-3H-[1,2,3]triazolo[4,5-b]pyridin-5-amine] | 101 to 999 nM |  |  |  |  |
